The text below walks through data of the supplement of paper PMC11061612.

Common to all, as to assay: Bliss excess, mean over the matrix (fraction); higher = more synergy
The subject of one assay is 769-P (Kidney Carcinoma). An outline of the steps:
(§1)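 Bliss excess equals the observed combination effect minus the expected value EA + EB − EA·EB, where EA and EB are the effects of each agent alone. Combination Emax is the second-highest inhibition within the matrix. Inhibition was scaled from CellTiter-Glo 2.0 luminescence, with 0 set by vehicle wells and 1 by blank wells, after 72 hours of two-drug dosing of cells plated in 1536-well plates.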

For assay [1], the system named is A2780 (Ovarian Carcinoma). A digest of the protocol: as §1
Assay [2] has as its system CGTH-W-1 (Thyroid Gland Carcinoma). A digest of the protocol:
as §1

The subject of assay [3] is MDA-MB-436 (Breast Carcinoma). A digest of the protocol:
as §1

In assay [4] the test system is NCI-H1651 (Lung Adenocarcinoma). A digest of the protocol:
as §1

Assay [5] has as its system NCI-H441 (Lung Adenocarcinoma). An outline of the steps:
as §1

Assay [6] has as its system DMS-53 (Small Cell Lung Carcinoma). An outline of the steps: as §1
Assay [7] has as its system HCC1428 (Breast Carcinoma). An outline of the steps:
as §1

For assay [8], the system named is LS-411N (Colorectal Carcinoma). An outline of the steps: as §1

On to `Cc1c2c(nn1C)CSCc1cc(n(C)n1)CSc1cc(c3ccccc3c1)OCCCc1c(C(=O)O)n(C)c3c-2c(Cl)ccc13` [AZD5991] + Nc1ccn([C@@H]2O[C@H](CO)[C@@H](O)C2(F)F)c(=O)n1 [Gemcitabine] (first compound max 1 µM, 7x7, partner max 0.3 µM), for which the Bliss excess was -0.0637 with 769-P (Kidney Carcinoma); -0.0035 in assay [1]; -0.0235 in [2]; -0.06 in assay [3]; 0.0582 in [4]; 0.0106 in assay [5].

Consider `Cc1c2c(nn1C)CSCc1cc(n(C)n1)CSc1cc(c3ccccc3c1)OCCCc1c(C(=O)O)n(C)c3c-2c(Cl)ccc13` [AZD5991] + CC(=O)O[C@H]1C(=O)[C@@]2(C)[C@H]([C@H](OC(=O)c3ccccc3)[C@]3(O)C[C@H](OC(=O)[C@H](O)[C@@H](NC(=O)c4ccccc4)c4ccccc4)C(C)=C1C3(C)C)[C@]1(OC(C)=O)CO[C@@H]1C[C@@H]2O [Paclitaxel] (first compound max 1 µM, 7x7, partner max 3 µM), for which the Bliss excess is -0.0044 in the assay with 769-P (Kidney Carcinoma); 0.0614 in assay [1]; 0.037 in [2]; 0.0273 in assay [3]; -0.0345 in assay [4]; -0.0193 in assay [5].

Take `CC1(C)CCC(CN2CCN(c3ccc(C(=O)NS(=O)(=O)c4ccc(NCC5CCOCC5)c([N+](=O)[O-])c4)c(Oc4cnc5[nH]ccc5c4)c3)CC2)=C(c2ccc(Cl)cc2)C1` [Venetoclax] + CS(=O)(=O)CCNCc1ccc(-c2ccc3ncnc(Nc4ccc(OCc5cccc(F)c5)c(Cl)c4)c3c2)o1 [Lapatinib] (first compound max 1 µM, 7x7, partner max 10 µM): the Bliss excess is 0.0871 with 769-P (Kidney Carcinoma); -0.0363 in [1]; -0.0396 in assay [2]; -0.0222 in [3]; -0.0182 in assay [4]; -0.0292 in assay [5].

On to `O=C(c1cc(Cc2n[nH]c(=O)c3ccccc23)ccc1F)N1CCN(C(=O)C2CC2)CC1` [Olaparib] + Cc1c2c(nn1C)CSCc1cc(n(C)n1)CSc1cc(c3ccccc3c1)OCCCc1c(C(=O)O)n(C)c3c-2c(Cl)ccc13 [AZD5991] (first compound max 10 µM, 7x7, partner max 1 µM), for which the Bliss excess in the assay on 769-P (Kidney Carcinoma) is 0.0074; in assay [1] it was 0.0369; in assay [2], -0.045; in assay [3], -0.0211; in assay [4] it was -0.0207; in assay [5], -0.054.

Take `C[C@@H](Oc1cc(-c2cnn(C3CCNCC3)c2)cnc1N)c1c(Cl)ccc(F)c1Cl` [Crizotinib] + CC1=C(C(=CC=C1)Cl)NC(=O)C2=CN=C(S2)NC3=CC(=NC(=N3)C)N4CCN(CC4)CCO [Dasatinib] (first compound max 10 µM, 7x7, partner max 2 µM): the Bliss excess was -0.0405 in the assay on 769-P (Kidney Carcinoma); 0.051 in assay [1]; 0.0795 in assay [2]; -0.0418 in assay [3]; -0.0149 in [4]; 0.0104 in assay [5].

Take `C[C@@H]1COCCN1c1cc(C2([S@](C)(=N)=O)CC2)nc(-c2ccnc3[nH]ccc23)n1` [AZD6738] + Nc1ccn([C@@H]2O[C@H](CO)[C@@H](O)C2(F)F)c(=O)n1 [Gemcitabine] (first compound max 10 µM, 7x7, partner max 0.3 µM): the Bliss excess with 769-P (Kidney Carcinoma) was -0.0475; in assay [1] it was -0.0243; in assay [2], 0.106; in assay [3] it was 0.0544; in assay [4], 0.039; in assay [5], 0.0418.

As for `CS(=O)(=O)CCNCc1ccc(-c2ccc3ncnc(Nc4ccc(OCc5cccc(F)c5)c(Cl)c4)c3c2)o1` [Lapatinib] + Cn1cnc2c(F)c(Nc3ccc(Br)cc3Cl)c(C(=O)NOCCO)cc21 [Selumetinib] (first compound max 10 µM, 7x7, partner max 10 µM), the Bliss excess in the assay with 769-P (Kidney Carcinoma) was 0.0368; in assay [1] it was -0.018; in [2], -0.0291; in assay [3], -0.0587; in assay [4], -0.0355; in [5], -0.0353.

`O=C(c1cc(Cc2n[nH]c(=O)c3ccccc23)ccc1F)N1CCN(C(=O)C2CC2)CC1` [Olaparib] + CN(CC[C@H](CSC1=CC=CC=C1)NC2=C(C=C(C=C2)S(=O)(=O)NC(=O)C3=CC=C(C=C3)N4CCC(CC4)[C@H](C5=CC=CC=C5C6=CC=C(C=C6)Cl)O)S(=O)(=O)C(F)(F)F)CCO [AZD4320] (first compound max 10 µM, 7x7, partner max 1 µM): the Bliss excess is -0.0143 in the assay with 769-P (Kidney Carcinoma); -0.0295 in assay [1]; -0.0482 in assay [2]; -0.0288 in assay [3]; 0.0253 in assay [4]; -0.0587 in assay [5].

Consider `CS(=O)(=O)CCNCc1ccc(-c2ccc3ncnc(Nc4ccc(OCc5cccc(F)c5)c(Cl)c4)c3c2)o1` [Lapatinib] + NC1(c2ccc(-c3nc4ccn5c(=O)[nH]nc5c4cc3-c3ccccc3)cc2)CCC1 [MK-2206] (first compound max 10 µM, 7x7, partner max 10 µM), for which the Bliss excess in the assay with 769-P (Kidney Carcinoma) is 0.0372; in assay [1], -0.027; in assay [2] it was 0.0174; in [6], 0.0185; in assay [7], 0.0023; in assay [8], -0.0339. Moreover, the Bliss excess in assay [3] is 0.0323; in assay [4] it was -0.0008; in [5], -0.0033.

`O=C(c1cc(Cc2n[nH]c(=O)c3ccccc23)ccc1F)N1CCN(C(=O)C2CC2)CC1` [Olaparib] + COc1nnc2ccc(N3CCC(c4ccc(OCCN5CCN(C)C(=O)[C@H]5C)cc4)CC3)nn12 [AZD5153] (first compound max 10 µM, 7x7, partner max 1 µM): the Bliss excess in the assay on 769-P (Kidney Carcinoma) was -0.0374; in assay [1], -0.0856; in assay [2], -0.0247; in assay [3], -0.0247; in [4], -0.0044; in assay [5] it was -0.0779.

`Cc1c2c(nn1C)CSCc1cc(n(C)n1)CSc1cc(c3ccccc3c1)OCCCc1c(C(=O)O)n(C)c3c-2c(Cl)ccc13` [AZD5991] + CS(=O)(=O)CCNCc1ccc(-c2ccc3ncnc(Nc4ccc(OCc5cccc(F)c5)c(Cl)c4)c3c2)o1 [Lapatinib] (first compound max 1 µM, 7x7, partner max 10 µM): the Bliss excess in the assay with 769-P (Kidney Carcinoma) was 0.0329; in assay [1] it was 0.0013; in assay [2], 0.0013; in assay [3], -0.0434; in [4], -0.0015; in [5], -0.0054.
